# In patent US4032659A (priority 1975, dated 1977):
# Where two headings read alike, the source gives them in different places.
# Key:
# [1] = system: Influenza PR 8 virus; assay: Chemoprophylaxis of Influenza PR 8 virus infection in mice; format: in vivo, mouse
# [2] = system: Vaccinia virus; format: in vivo; conditions: scarified rabbit skin
# [3] = system: virus infections; assay: Antiviral screening program, several viruses; conditions: mouse, in vivo
# [4] = system: Herpes virus; format: in vivo, mouse; conditions: oral
# [5] = system: Influenza Ann Arbor virus; assay: Chemoprophylaxis of Influenza Ann Arbor (A1) virus infection in mice; format: in vivo, mouse
# [6] = system: Vaccinia virus; format: cell-based, fertile eggs; conditions: various concentrations
# [7] = system: Mengo virus; assay: Mengo virus infection in mice; format: in vivo, mouse; conditions: oral
# Source text: The results are illustrated in Table 43.
# [8] = system: Herpes virus; assay: Herpes virus in eggs (chick embryo survival); format: in vivo, chicken eggs; conditions: for Deaths on day 1 / Deaths on day 3 / Deaths on day 4 / Total Deaths 4th Day / Deaths on day 2: 12 eggs
# [9] = system: Neurovaccinia virus; assay: Neurovaccinia (intracerebral) in mice; conditions: mouse, in vivo
# [10] = system: Influenza B Massachusetts virus; conditions: larger doses, different dose schedules; cited from earlier work
smiles,measurement,setting,value
"NNC(N)=S [Thiosemicarbazide, thiosemicarbazide]",protection,[1]; intraperitoneal,almost no protection
same,Survivors,"[1]; intraperitoneal, total dose 5 μg",0
same,Survivors,"[1]; intraperitoneal, total dose .005 μg",0
same,Survivors,"[1]; intraperitoneal, total dose .05 μg",0
same,Survivors,"[1]; intraperitoneal, total dose .5 μg",0
same,Survivors,"[1]; oral, total dose .005 μg",3
same,Survivors,"[1]; oral, total dose .5 μg",0
same,Survivors,"[1]; subcutaneous, total dose 5 μg",3
same,Survivors,"[1]; subcutaneous, total dose .0005 μg",0
same,Survivors,"[1]; subcutaneous, total dose .005 μg",0
same,effect on pox formation,[2],highly significant diminution in the vaccinia pox formation
same,activity (in words),[3],"active against Influenza PR 8, Vaccinia in the mouse tail, Mengo virus, Herpes virus in mice and eggs, Influenza virus, and Vaccinia virus in rabbits"
same,No. animals surviving when 19/20 controls are dead,[4]; total dose 5 μg,0
same,No. animals surviving when 17/20 controls are dead,[4]; total dose .000005 μg,0
same,No. animals surviving when 17/20 controls are dead,[4]; total dose .00005 μg,3
same,Survivors,[4]; total dose .00005 μg,3
same,No. animals surviving after 7 days,[4]; total dose .0005 μg,6
same,No. animals surviving when 17/20 controls are dead,[4]; total dose .0005 μg,0
same,No. animals surviving after 7 days,[4]; total dose .005 μg,6
same,No. animals surviving when 17/20 controls are dead,[4]; total dose .05 μg,0
same,Survivors,"[5]; oral, total dose .5 μg",0
same,effect on pox formation on the membrane,[6],No effect on pox formation on the membrane could be observed
same,Survivors,[7]; total dose .0000005 μg,0
same,No. animals surviving after 6 days,[7]; total dose .000005 μg,2
same,Survivors,[7]; total dose .000005 μg,1
same,No. animals surviving after 6 days,[7]; total dose .00005 μg,5
same,Survivors,[7]; total dose .00005 μg,1
same,Survivors,[7]; total dose .0005 μg,0
same,Survivors,[7]; total dose .005 μg,0
same,"No. Living Longer Than Controls, total",[8]; all doses,7
same,Deaths on day 1,[8]; dose 2 μg,3
same,Deaths on day 3,[8]; dose 2 μg,5
same,Deaths on day 4,[8]; dose 2 μg,3
same,Total Deaths 4th Day,[8]; dose 2 μg,12
same,Deaths on day 2,[8]; dose 20 μg,4
same,Deaths on day 3,[8]; dose 20 μg,6
same,Total Deaths 4th Day,[8]; dose 20 μg,12
same,Deaths on day 1,[8]; dose .00005 μg,2
same,Deaths on day 2,[8]; dose .00005 μg,5
same,Deaths on day 3,[8]; dose .00005 μg,2
same,Total Deaths 4th Day,[8]; dose .00005 μg,10
same,Deaths on day 1,[8]; dose .0005 μg,2
same,Deaths on day 2,[8]; dose .0005 μg,3
same,Deaths on day 3,[8]; dose .0005 μg,2
same,Deaths on day 4,[8]; dose .0005 μg,3
same,Total Deaths 4th Day,[8]; dose .0005 μg,10
same,Deaths on day 1,[8]; dose .005 μg,4
same,Deaths on day 2,[8]; dose .005 μg,3
same,Deaths on day 3,[8]; dose .005 μg,3
same,Total Deaths 4th Day,[8]; dose .005 μg,10
same,Deaths on day 2,[8]; dose .05 μg,3
same,Deaths on day 3,[8]; dose .05 μg,5
same,Total Deaths 4th Day,[8]; dose .05 μg,9
same,Deaths on day 1,[8]; dose .5 μg,3
same,Deaths on day 2,[8]; dose .5 μg,4
same,Deaths on day 3,[8]; dose .5 μg,2
same,Deaths on day 4,[8]; dose .5 μg,2
same,Total Deaths 4th Day,[8]; dose .5 μg,11
same,"surviving animals (three instances, single dose level)",[9],one
"NC12CC3CC(CC(C3)C1)C2 [Amantadine, amantadine, reference compound]",instances of a statistically significant number of survivors,[1]; 41 tests,one single instance
same,instances of increased geometric mean survival time,[1]; 41 tests,11
same,number of survivors in the single significant instance,[1]; 41 tests,3
same,chemoprophylaxis (in words),[10],ineffective against Influenza B Massachusetts
same,activity (in words),[3],inactive against all of the other viruses in the test system
same,tests with survivors (of 18 tests),[5]; 18 tests,5
